Measured values as given in patent publication US7811599B2, “Pharmaceutical combinations comprising a fungicide, a bacteriostatic sulphonamide and an antibacterial compound for topical application” (priority 2001, dated 2010).
≈ marks a conversion by molar mass, not a printed value.

Experiments:
Type in all cases: cell-based
Serratia marcescens = experiment: MIC values of active ingredients (in nutrient liquid); conditions: Table I
Protocol: (§1) The experiments are carried out in an ambience free of germs. […] The following compounds were tested: azithromycin, clarithromycin, erythromycin, miconazole, […]-sulphate. Test organisms: Bacteria: Escherichia coli, Pseudomonas aeruginosa, Serratia marcescens, Staphylococcus aureus, Streprococcus pyogenes. Fungi: Aspergillus flavus, Fusarium oxysporum, Candida albicans, Candida parapsilosus. Nutrient media: Soye bouillon, Sabouraud nutrient liquor. Solvents: methanol a.r. and for […]-sulphate the mixture of butanol:ethanol:water in the ratio of 1:1:2. Negative control: nutrient medium exempt of test organisms. Positive control: nutrient medium and 10 μL of the inoculum. Following preparation of the inoculum and incubation the MIC values were determined according to the above.

Pseudomonas aeruginosa = experiment: as above; conditions: Table I
Protocol: as §1

Streptococcus pyogenes = experiment: as above; conditions: Table I
Protocol: as §1

Escherichia coli = experiment: as above; conditions: Table I
Protocol: as §1

Staphylococcus aureus = experiment: as above; conditions: Table I
Protocol: as §1

Candida parapsilosis = experiment: as above; conditions: Table I; for MIC: Lodderomyces parapsilosis
Protocol: as §1, with “For fungi: Sabouraud nutrient liquid containing glucose, […] digested casein and water. The experiments” for “The experiments”

Aspergillus flavus = experiment: as above; conditions: Table I
Protocol: as §1, with “For fungi: Sabouraud nutrient liquid containing glucose, […] digested casein and water. The experiments” for “The experiments”

Candida albicans = experiment: as above; conditions: Table I
Protocol: as §1, with “For fungi: Sabouraud nutrient liquid containing glucose, […] digested casein and water. The experiments” for “The experiments”

Fusarium oxysporum = experiment: as above; conditions: Table I
Protocol: as §1, with “For fungi: Sabouraud nutrient liquid containing glucose, […] digested casein and water. The experiments” for “The experiments”

[1] = tested on: all tested bacteria and fungi; experiment: MIC values of active ingredients on 9 different microbe strains, summary in words; conditions: summary of Table I
Protocol: For fungi: Sabouraud nutrient liquid containing glucose, tripsine digested casein and water.
The experiments are carried out in an ambience free of germs.
The following compounds were tested: azithromycin, clarithromycin, erythromycin, miconazole, primicin-sulphate. Test organisms: Bacteria: Escherichia coli, Pseudomonas aeruginosa, Serratia marcescens, Staphylococcus aureus, Streprococcus pyogenes. Fungi: Aspergillus flavus, Fusarium oxysporum, Candida albicans, Candida parapsilosus. Nutrient media: Soye bouillon, Sabouraud nutrient liquor. Solvents: methanol a.r. and for primicin-sulphate the mixture of butanol:ethanol:water in the ratio of 1:1:2. Negative control: nutrient medium exempt of test organisms. Positive control: nutrient medium and 10 μL of the inoculum.
Following preparation of the inoculum and incubation the MIC values were determined according to the above.

Compound	MIC (Serratia marcescens)	MIC (Pseudomonas aeruginosa)	MIC (Streptococcus pyogenes)	MIC (Escherichia coli)	MIC (Staphylococcus aureus)	MIC (Candida parapsilosis)	MIC (Aspergillus flavus)	MIC (Candida albicans)	MIC (Fusarium oxysporum)	activity in the MIC test, in words [1]	MIC values (Serratia marcescens)	MIC values (Pseudomonas aeruginosa)	MIC values (Streptococcus pyogenes)	MIC values (Escherichia coli)	MIC values (Staphylococcus aureus)	MIC values (Candida parapsilosis)	MIC values (Aspergillus flavus)	MIC values (Candida albicans)	MIC values (Fusarium oxysporum)
CC[C@H]1OC(=O)[C@H](C)[C@@H](O[C@H]2C[C@@](C)(OC)[C@@H](O)[C@H](C)O2)[C@H](C)[C@@H](O[C@@H]2O[C@H](C)C[C@H](N(C)C)[C@H]2O)[C@](C)(O)C[C@@H](C)C(=O)[C@H](C)[C@@H](O)[C@]1(C)O [erythromycin]	300 µg/mL (≈ 409 µM)	90 µg/mL (≈ 123 µM)	3 µg/mL (≈ 4.09 µM)	100 µg/mL (≈ 136 µM)	1 µg/mL (≈ 1.36 µM)	500 µg/mL (≈ 681 µM)	> 500 µg/mL	> 500 µg/mL	> 500 µg/mL										
CC[C@H]1OC(=O)[C@H](C)[C@@H](O[C@H]2C[C@@](C)(OC)[C@@H](O)[C@H](C)O2)[C@H](C)[C@@H](O[C@@H]2O[C@H](C)C[C@H](N(C)C)[C@H]2O)[C@](C)(O)C[C@@H](C)CN(C)[C@H](C)[C@@H](O)[C@]1(C)O [azithromycin]	8 µg/mL (≈ 10.7 µM)	65 µg/mL (≈ 86.8 µM)	3 µg/mL (≈ 4.01 µM)	6 µg/mL (≈ 8.01 µM)	2 µg/mL (≈ 2.67 µM)	500 µg/mL (≈ 668 µM)	> 500 µg/mL	> 500 µg/mL	> 500 µg/mL	effective on all tested bacteria									
CC[C@H]1OC(=O)[C@H](C)[C@@H](O[C@H]2C[C@@](C)(OC)[C@@H](O)[C@H](C)O2)[C@H](C)[C@@H](O[C@@H]2O[C@H](C)C[C@H](N(C)C)[C@H]2O)[C@](C)(OC)C[C@@H](C)C(=O)[C@H](C)[C@@H](O)[C@]1(C)O [clarithromycin]	100 µg/mL (≈ 134 µM)	80 µg/mL (≈ 107 µM)	1 µg/mL (≈ 1.34 µM)	95 µg/mL (≈ 127 µM)	0.2 µg/mL (≈ 0.267 µM)	> 100 µg/mL	> 100 µg/mL	> 100 µg/mL	> 100 µg/mL										
primycin										acceptably active against Candida type fungi but not against all tested bacteria	100< μg/ml	100< μg/ml	0.5 µg/mL	100< μg/ml	0.2 µg/mL	5.0 µg/mL	100< μg/ml	18 µg/mL	100< μg/ml
Clc1ccc(COC(Cn2ccnc2)c2ccc(Cl)cc2Cl)c(Cl)c1 (stereo not drawn) [miconazole]	> 500 µg/mL	> 500 µg/mL	0.5 µg/mL (≈ 1.2 µM)	> 500 µg/mL	3 µg/mL (≈ 7.21 µM)	0.2 µg/mL (≈ 0.481 µM)	2 µg/mL (≈ 4.81 µM)	0.5 µg/mL (≈ 1.2 µM)	> 8 µg/mL	inhibits all tested fungi and cocci									
